What was measured:
Assay type in all cases: biochemical
[1] = biological target: T1, Aurora A kinase (Homo sapiens, UniProt O14965); test: Aurora A kinase assay ([γ-33P]ATP, CHOCKtide substrate); details: for inhibition at 1 µM: 1.0 μM test compound
T1 construct: purchased Upstate
T1 sequence (O14965 1-403): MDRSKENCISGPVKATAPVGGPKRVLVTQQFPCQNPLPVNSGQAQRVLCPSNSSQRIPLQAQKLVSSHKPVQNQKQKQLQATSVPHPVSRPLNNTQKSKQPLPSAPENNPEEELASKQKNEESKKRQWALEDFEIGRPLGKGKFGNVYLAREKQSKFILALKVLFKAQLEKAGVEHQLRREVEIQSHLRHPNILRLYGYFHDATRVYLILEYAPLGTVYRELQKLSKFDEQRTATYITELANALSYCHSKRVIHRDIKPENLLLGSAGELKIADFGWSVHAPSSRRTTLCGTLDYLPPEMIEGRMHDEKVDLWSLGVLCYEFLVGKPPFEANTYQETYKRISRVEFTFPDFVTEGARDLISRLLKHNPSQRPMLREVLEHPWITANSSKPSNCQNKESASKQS
Outline: (§1)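 Radiometric filter-binding format: 33P incorporation into CHOCKtide counted after acid stop and filtration. Reactions ran 30 min at 33 °C, Aurora A with 10 μM ATP, Aurora B with 40 μM ATP. IC50 taken as concentration giving half-maximal kinase inhibition.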

[2] = biological target: T2, Aurora B kinase (Homo sapiens, UniProt Q96GD4); test: Aurora B kinase assay ([γ-33P]ATP, CHOCKtide substrate); details: for inhibition at 1 µM: 1.0 μM test compound
T2 construct: purchased Cell signaling
T2 sequence (Q96GD4 whole entry): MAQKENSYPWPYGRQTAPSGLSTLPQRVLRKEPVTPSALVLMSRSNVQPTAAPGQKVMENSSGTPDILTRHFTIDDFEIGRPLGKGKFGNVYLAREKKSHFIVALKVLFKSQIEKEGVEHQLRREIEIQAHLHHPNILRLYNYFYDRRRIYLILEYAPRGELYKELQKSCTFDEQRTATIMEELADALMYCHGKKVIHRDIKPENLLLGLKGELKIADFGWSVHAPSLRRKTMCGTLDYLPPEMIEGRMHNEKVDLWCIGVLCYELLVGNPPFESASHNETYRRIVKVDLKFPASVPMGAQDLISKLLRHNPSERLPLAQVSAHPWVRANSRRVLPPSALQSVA
Outline: as §1

[3] = biological target: T3, VEGFR2 kinase (Homo sapiens, UniProt P35968); test: VEGFR2 kinase assay (33P incorporation into Poly(Glu-Tyr)); details: 500 nM test compound; read-out: Inhibition at 500 nM (%) VEGFr-2
T3 construct: recombinant N-terminal 6×His-tagged VEGFR2 kinase domain construct expressed by baculovirus; 6xHis (N); made in house
T3 sequence (P35968 834-1162 limits assumed): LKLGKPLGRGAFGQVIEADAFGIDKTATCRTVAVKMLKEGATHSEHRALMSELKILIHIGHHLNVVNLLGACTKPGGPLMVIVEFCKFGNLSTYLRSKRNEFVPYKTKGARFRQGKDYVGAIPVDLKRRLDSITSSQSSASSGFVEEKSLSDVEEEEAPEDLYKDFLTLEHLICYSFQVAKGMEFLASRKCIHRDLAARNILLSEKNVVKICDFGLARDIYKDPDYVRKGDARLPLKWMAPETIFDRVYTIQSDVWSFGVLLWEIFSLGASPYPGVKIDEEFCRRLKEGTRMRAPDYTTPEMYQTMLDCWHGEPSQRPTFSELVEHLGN
Outline: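 Recombinant baculovirus-expressed N-terminal His6-tagged VEGFR2 kinase domain (6.25 ng) phosphorylated poly(Glu-Tyr) 4:1 with 100 μM ATP plus [33P]-γ-ATP in MOPS pH 7.0, 30 °C, 30 min. Test compound was at 500 nM (4% DMSO). Filter-retained radioactivity relative to DMSO control gave % inhibition.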

[4] = biological target: T4, c-Met kinase (Homo sapiens, UniProt P08581); test: c-Met kinase assay (33P incorporation into Poly(Glu-Tyr)); details: 500 nM test compound
T4 construct: recombinant N-terminal 6×His-tagged c-Met kinase domain construct expressed from baculovirus; 6xHis (N); made in house
T4 sequence (P08581 1078-1345 limits assumed): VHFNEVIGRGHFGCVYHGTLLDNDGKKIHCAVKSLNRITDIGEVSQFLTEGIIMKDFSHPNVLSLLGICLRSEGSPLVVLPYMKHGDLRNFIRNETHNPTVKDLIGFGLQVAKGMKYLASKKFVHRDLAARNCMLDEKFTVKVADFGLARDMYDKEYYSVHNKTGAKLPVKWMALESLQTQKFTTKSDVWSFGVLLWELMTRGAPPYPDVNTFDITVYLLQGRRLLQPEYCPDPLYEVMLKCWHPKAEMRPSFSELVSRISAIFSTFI
Outline: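 Single-concentration test (500 nM compound) at 30° C for 30 min, pH 7.0 MOPS buffer with 100 μM ATP and [33P]-γ-ATP. Enzyme was baculovirus-expressed 6×His c-Met kinase domain (5 ng), substrate Poly(Glu-Tyr) 4:1. Inhibition percentage derived from filter-bound counts relative to DMSO control.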

Row | Compound | inhibition at 1 µM [1] [%] | inhibition at 1 µM [2] [%] | inhibition at 0.5 µM [3] [%] | inhibition at 0.5 µM [4] [%] | IC50 [1] [nM] | IC50 [2] [nM]
1 | CCOC(=O)CCc1c(/C=C2\C(=O)Nc3cc(-c4ccc5c(c4)OCO5)ccc32)[nH]c2c1C(=O)CCC2 [DCB-70128, (Z)-ethyl 3-(2-((6-(benzo[d][1,3]dioxol-5-yl)-2-oxoindolin-3-ylidene)methyl)-4-oxo-4,5,6,7-tetrahydro-1H-indol-3-yl)propanoate] | 5.1 | 13.5 | 19.3 | 12.5 |  | 
2 | CCOC(=O)CCc1c(/C=C2\C(=O)Nc3ccc(NC(=O)Nc4cccc5ccccc45)cc32)[nH]c2c1C(=O)CCC2 [DCB-70129, (Z)-ethyl 3-(2-((5-(3-naphthalen-1-ylureido)-2-oxoindolin-3-ylidene)methyl)-4-oxo-4,5,6,7-tetrahydro-1H-indol-3-yl)propanoate] | 15.6 | 5.8 | 88 | 5 |  | 
3 | CCOC(=O)CCc1c(/C=C2\C(=O)Nc3cc(Br)ccc32)[nH]c2c1C(=O)CCC2 [DCB-70130, (Z)-ethyl 3-(2-((6-bromo-2-oxoindolin-3-ylidene)methyl)-4-oxo-4,5,6,7-tetrahydro-1H-indol-3-yl)propanoate] | 22.7 | 12.2 | 69.8 | 4.2 |  | 
4 | CCOC(=O)CCc1c(/C=C2\C(=O)Nc3ccc(NCc4ccccc4)cc32)[nH]c2c1C(=O)CCC2 [DCB-70131, (Z)-ethyl 3-(2-((5-(benzylamino)-2-oxoindolin-3-ylidene)methyl)-4-oxo-4,5,6,7-tetrahydro-1H-indol-3-yl)propanoate] | 70.7 | 44.5 | 65.9 | -2.1 |  | 
5 | O=C(O)CCc1c(/C=C2\C(=O)Nc3ccc(NCc4ccccc4)cc32)[nH]c2c1C(=O)CCC2 [DCB-70132, (Z)-3-(2-((5-(benzylamino)-2-oxoindolin-3-ylidene)methyl)-4-oxo-4,5,6,7-tetrahydro-1H-indol-3-yl)propanoic acid] | 33.4 | 26.9 | 15.8 | 13.7 |  | 
6 | O=C(O)CCc1c(/C=C2\C(=O)Nc3cc(Br)ccc32)[nH]c2c1C(=O)CCC2 [DCB-70133, (Z)-3-(2-((6-bromo-2-oxoindolin-3-ylidene)methyl)-4-oxo-4,5,6,7-tetrahydro-1H-indol-3-yl)propanoic acid] | 2.6 | 6 | 54.2 | 3.3 |  | 
7 | CCOC(=O)CCc1c(/C=C2\C(=O)Nc3ccc(NC(=O)Nc4ccccc4)cc32)[nH]c2c1C(=O)CCC2 [DCB-70134, (Z)-ethyl 3-(4-oxo-2-((2-oxo-5-(3-phenylureido)indolin-3-ylidene)methyl)-4,5,6,7-tetrahydro-1H-indol-3-yl)propanoate] | 16.4 | 5.7 | 20.7 | -0.3 |  | 
8 | CCOC(=O)CCc1c(/C=C2\C(=O)Nc3ccc(NC(=O)Nc4ccc(Br)cc4)cc32)[nH]c2c1C(=O)CCC2 [DCB-70135, (Z)-ethyl 3-(2-((5-(3-(4-bromophenyl)ureido)-2-oxoindolin-3-ylidene)methyl)-4-oxo-4,5,6,7-tetrahydro-1H-indol-3-yl)propanoate] | 7.4 | -6.6 | 44.6 | -3.7 |  | 

Results, then the compound that gave them:

Row | inhibition at 1 µM [1] [%] | inhibition at 1 µM [2] [%] | inhibition at 0.5 µM [3] [%] | inhibition at 0.5 µM [4] [%] | IC50 [1] [nM] | IC50 [2] [nM] | Compound
9 | 26.4 | 0.1 | 31.7 | -7.7 |  |  | CCOC(=O)CCc1c(/C=C2\C(=O)Nc3ccc(NC(=O)Nc4ccc(F)cc4)cc32)[nH]c2c1C(=O)CCC2 [DCB-70136, (Z)-ethyl 3-(2-((5-(3-(4-fluorophenyl)ureido)-2-oxoindolin-3-ylidene)methyl)-4-oxo-4,5,6,7-tetrahydro-1H-indol-3-yl)propanoate]
10 | 12.6 | -3.3 | 82.9 | 11.5 |  |  | CCOC(=O)CCc1c(/C=C2\C(=O)Nc3ccc(NC(=O)Nc4ccc(Cl)c(C(F)(F)F)c4)cc32)[nH]c2c1C(=O)CCC2 [DCB-70137, (Z)-ethyl 3-(2-((5-(3-(4-chloro-3-(trifluoromethyl)phenyl)ureido)-2-oxoindolin-3-ylidene)methyl)-4-oxo-4,5,6,7-tetrahydro-1H-indol-3-yl)propanoate]
11 | 31.1 | 5.2 | 27.6 | 9.3 |  |  | CCOC(=O)CCc1c(/C=C2\C(=O)Nc3ccc(NC(=O)c4ccc([N+](=O)[O-])cc4)cc32)[nH]c2c1C(=O)CCC2 [DCB-70140, (Z)-ethyl 3-(2-((5-(4-nitrobenzamido)-2-oxoindolin-3-ylidene)methyl)-4-oxo-4,5,6,7-tetrahydro-1H-indol-3-yl)propanoate]
12 | 82 | 61.9 | 40.8 | 14.4 | 270 | 448 | CCOC(=O)CCc1c(/C=C2\C(=O)Nc3ccc(NS(=O)(=O)c4ccc(F)cc4)cc32)[nH]c2c1C(=O)CCC2 [DCB-70144, (Z)-ethyl 3-(2-((5-(4-fluorophenylsulfonamido)-2-oxoindolin-3-ylidene)methyl)-4-oxo-4,5,6,7-tetrahydro-1H-indol-3-yl)propanoate]
13 | 90.3 | 75.2 | 66.6 | 12.5 | 45.7 | 449 | O=C(O)CCc1c(/C=C2\C(=O)Nc3ccc(NS(=O)(=O)c4ccc(F)cc4)cc32)[nH]c2c1C(=O)CCC2 [DCB-70145, (Z)-3-(2-((5-(4-fluorophenylsulfonamido)-2-oxoindolin-3-ylidene)methyl)-4-oxo-4,5,6,7-tetrahydro-1H-indol-3-yl)propanoic acid]
14 | 81.3 | 75.1 | 59.7 | 20.9 | 86.3 | 439 | CCOC(=O)CCc1c(/C=C2\C(=O)Nc3ccc(NS(=O)(=O)c4ccccc4)cc32)[nH]c2c1C(=O)CCCC2 [DCB-70146, (Z)-ethyl 3-(4-oxo-2-((2-oxo-5-(phenylsulfonamido)indolin-3-ylidene)methyl)-1,4,5,6,7,8-hexahydrocyclohepta[b]pyrrol-3-yl)propanoate]
15 | 91.9 | 61.3 | 71.3 | 0.2 | 68.4 |  | O=C(O)CCc1c(/C=C2\C(=O)Nc3ccc(NS(=O)(=O)c4ccccc4)cc32)[nH]c2c1C(=O)CCCC2 [DCB-70147, (Z)-3-(4-oxo-2-((2-oxo-5-(phenylsulfonamido)indolin-3-ylidene)methyl)-1,4,5,6,7,8-hexahydrocyclohepta[b]pyrrol-3-yl)propanoic acid]
